Results on 22 compounds are retold here after patent US11986480B2, “Heterocyclic compound” (TOHOKU UNIVERSITY, priority 2017, dated 2024).

Structures can show the parent of a compound that is named as a salt.

In one assay the test system is EmGFP-HaloTag. Description: Test Example 1: HeLa cells stably expressing EmGFP-HaloTag, Western blot GFP/actin (Testing Method A). Type of assay: cell-based. Conditions: 1 uM, 24 hours, 1 or less = degradation promoted. Here is the method: Test Example 1: Evaluation Method Using Cell Stably Expressing EmGFP-HaloTag (Testing Method A)
(§1) HeLa cells stably expressing EmGFP-HaloTag were inoculated to Dulbecco's Modified Eagle Medium (DMEM) and cultured for 24 hours. Then, a test compound (specifically, compounds of Examples 1 to 7, 9 to 11, 13 to 15, 17 to 20, 24 to 27, 29, 32 to 33, 36 to 42, 44 to 46 and 56) was added thereto at the final concentration shown in Table 2, followed by incubation for 24 hours under conditions of 37° C./5% CO2. The cells were washed with PBS three times and treated with a cell lysis solution containing a proteolytic enzyme inhibitor to obtain a cell extract. The cell extract was subjected to SDS-PAGE. After the electrophoresis, GFP and actin were detected by Western blot. The ratio of the GFP/actin value of the drug-treated cells to the GFP/actin value of a control group in drug-untreated cells was regarded as an activity value. A value of 1 or less represents that degradation of EmGFP-HaloTag was promoted.
On the technique in general: In western blotting, separated proteins are transferred to a membrane and probed.
As to `CC(=O)N[C@@H](CSc1nc2c(=O)[nH]c(N)nc2n1Cc1ccccc1Cl)C(=O)NCCOCCOCCOCCOCCOCCCCCCCl` [Example 24, N^2-acetyl-S-(2-amino-9-(2-chlorobenzyl)-6-oxo-6,9-dihydro-1H-purin-8-yl)-N-(21-chloro-3,6,9,12,15-pentaoxahenicos-1-yl)-L-cysteinamide], the “Activity value (GFP/actin of drug-treated cells relative to drug-untreated control)” value was 0.5.
Still for that read-out and setting: under `CC(=O)N[C@@H](CSc1nc2c(=O)n3cc[nH]c3nc2n1Cc1ccc(F)cc1)C(=O)NCCOCCOCCOCCOCCOCCCCCCCl` [Example 44, N^2-Acetyl-N-(21-chloro-3,6,9,12,15-pentaoxahenicos-1-yl)-S-(3-(4-fluorobenzyl)-9-oxo-5,9-dihydro-3H-imidazo[1,2-a]purin-2-yl)-L-cysteinamide] stands 0.9; under `CC(=O)N[C@@H](CSc1nc2c(=O)[nH]cnc2n1Cc1ccc(F)cc1)C(=O)NCCOCCOCCOCCOCCOCCCCCCCl` [Example 26, N^2-Acetyl-N-(21-chloro-3,6,9,12,15-pentaoxahenicos-1-yl)-S-(9-(4-fluorobenzyl)-6-oxo-6,9-dihydro-1H-purin-8-yl)-L-cysteinamide], 0.5; under `Nc1nc2c(nc(-c3cccc(OCCOCCOCCOCCOCCOCCCCCCCl)c3)n2Cc2ccc(F)cc2)c(=O)[nH]1` [Example 10], 0.3.
The same measure, in the same setting: under `CC(=O)N[C@@H](CSc1nc2c(=O)[nH]c(N)nc2n1Cc1cncs1)C(=O)NCCOCCOCCOCCOCCOCCCCCCCl` [Example 42, N^2-acetyl-S-(2-amino-6-oxo-9-(1,3-thiazole-5-ylmethyl)-6,9-dihydro-1H-purin-8-yl)-N-(21-chloro-3,6,9,12,15-pentaoxahenicos-1-yl)-L-cysteinamide] stands 0.8; under `CC(=O)Nc1nc2c(nc(SC[C@H](NC(C)=O)C(=O)NCCOCCOCCOCCOCCOCCCCCCCl)n2Cc2ccc(F)cc2)c(=O)[nH]1` [Example 27, S-(2-Acetamido-9-(4-fluorobenzyl)-6-oxo-6,9-dihydro-1H-purin-8-yl)-N^2-acetyl-N-(21-chloro-3,6,9,12,15-pentaoxahenicos-1-yl)-L-cysteinamide], 0.7.

Staying with this assay, now noted: 5 uM, 24 hours, 1 or less = degradation promoted.
As to `Nc1nc2c(nc(NCC(=O)NCCOCCOCCOCCOCCOCCCCCCCl)n2Cc2ccc(F)cc2)c(=O)[nH]1` [Example 9, N^2-(2-amino-9-(4-fluorobenzyl)-6-oxo-6,9-dihydro-1H-purin-8-yl)-N-(21-chloro-3,6,9,12,15-pentaoxahenicos-1-yl)glycinamide], the “Activity value (GFP/actin of drug-treated cells relative to drug-untreated control)” value stood at 0.47.

Still in this assay, the particulars now being: 10 uM, 24 hours, 1 or less = degradation promoted.
As for `CC(=O)N[C@@H](CSc1c(NCc2ccc(F)cc2)nc(N)[nH]c1=O)C(=O)NCCOCCOCCOCCOCCOCCCCCCCl` [Example 19, N^2-Acetyl-S-(2-amino-4-((4-fluorobenzyl)amino)-6-oxo-1,6-dihydropyrimidin-5-yl)-N-(21-chloro-3,6,9,12,15-pentaoxahenicos-1-yl)-L-cysteinamide Trifluoroacetate], the “Activity value (GFP/actin of drug-treated cells relative to drug-untreated control)” value is on record as 0.5.
As for `Nc1nc2c(nc(CCC(=O)NCCOCCOCCOCCOCCOCCCCCCCl)n2Cc2ccc(F)cc2)c(=O)[nH]1` [Example 6, 3-(2-Amino-9-(4-fluorobenzyl)-6-oxo-6,9-dihydro-1H-purin-8-yl)-N-(21-chloro-3,6,9,12,15-pentaoxahenicos-1-yl)propanamide], the “Activity value (GFP/actin of drug-treated cells relative to drug-untreated control)” value was 0.94.
Same read-out and setting: then `CC(=O)N[C@@H](CSc1nc2c(=O)[nH]c(N)nc2n1Cc1ccccc1)C(=O)NCCOCCOCCOCCOCCOCCCCCCCl` [Example 20, N^2-Acetyl-S-(2-amino-9-benzyl-6-oxo-6,9-dihydro-1H-purin-8-yl)-N-(21-chloro-3,6,9,12,15-pentaoxahenicos-1-yl)-L-cysteinamide Trifluoroacetate], with 0.2; and `CC(=O)N[C@@H](CSc1nc2c(=O)[nH]c(N)nc2n1Cc1ccc(C#N)cc1)C(=O)NCCOCCOCCOCCOCCOCCCCCCCl` [Example 36, N^2-acetyl-S-(2-amino-9-(4-cyanobenzyl)-6-oxo-6,9-dihydro-1H-purin-8-yl)-N-(21-chloro-3,6,9,12,15-pentaoxahenicos-1-yl)-L-cysteinamide], with 0.9; and `CC(=O)N[C@@H](CSc1nc2c(N)nc(N)nc2n1Cc1ccc(F)cc1)C(=O)NCCOCCOCCOCCOCCOCCCCCCCl` [Example 45, N^2-Acetyl-N-(21-chloro-3,6,9,12,15-pentaoxahenicos-1-yl)-S-(2,6-diamino-9-(4-fluorobenzyl)-9H-purin-8-yl)-L-cysteinamide], with 0.7.
As to `Nc1nc2c(nc(-c3ccc(OCCOCCOCCOCCOCCOCCCCCCCl)cc3)n2Cc2ccc(F)cc2)c(=O)[nH]1` [Example 11, 2-amino-8-(4-((21-chloro-3,6,9,12,15-pentaoxahenicos-1-yl)oxy)phenyl)-9-(4-fluorobenzyl)-1,9-dihydro-6H-purin-6-enea], the “Activity value (GFP/actin of drug-treated cells relative to drug-untreated control)” value was 0.7.

The assay is the same for the next values; noted with them: 100 uM, 24 hours, 1 or less = degradation promoted.
For `CC(=O)N[C@@H](CSc1nc2c(=O)[nH]c(N)nc2n1CC1CCOCC1)C(=O)NCCOCCOCCOCCOCCOCCCCCCCl` [Example 29, N^2-acetyl-S-(2-amino-6-oxo-9-(tetrahydro-2H-pyran-4-ylmethyl)-6,9-dihydro-1H-purin-8-yl)-N-(21-chloro-3,6,9,12,15-pentaoxahenicos-1-yl)-L-cysteinamide], the “Activity value (GFP/actin of drug-treated cells relative to drug-untreated control)” value was 0.5.
As for `COc1ccc(Cn2c(SC[C@H](NC(C)=O)C(=O)NCCOCCOCCOCCOCCOCCCCCCCl)nc3c(=O)[nH]c(N)nc32)cc1` [Example 38, N^2-acetyl-S-(2-amino-9-(4-methoxybenzyl)-6-oxo-6,9-dihydro-1H-purin-8-yl)-N-(21-chloro-3,6,9,12,15-pentaoxahenicos-1-yl)-L-cysteinamide], the “Activity value (GFP/actin of drug-treated cells relative to drug-untreated control)” value is given as 0.8.

The subject of a further assay is EmGFP-HaloTag. In words: Test Example 2: HeLa cells transiently overexpressing EmGFP-HaloTag, Western blot GFP/actin (Testing Method B). Type of assay: cell-based. As to conditions: 1 uM, 24 hours, 1 or less = degradation promoted. The procedure: Test Example 2: Evaluation Using Cell Transiently Overexpressing EmGFP-HaloTag (Testing Method B)
as §1, with “cells” for “cells stably expressing EmGFP-HaloTag”, “hours. Cells overexpressing EmGFP-HaloTag were obtained by transfection with a plasmid pCMV-EmGFP-HaloTag encoding EmGFP-HaloTag. On the next day,” for “hours. Then,”, “Examples 8, 12, 16, 21” for “Examples 1”, “to 23, 28, 30” for “to 7, 9 to 11, 13 to 15, 17 to 20, 24 to 27, 29, 32 to 33, 36 to 42, 44 to 46”, “and 31)” for “and 56)”
Take `Nc1nc2c(nc(NCCC(=O)NCCOCCOCCOCCOCCOCCCCCCCl)n2Cc2ccc(F)cc2)c(=O)[nH]1` [Example 8, N^3-(2-Amino-9-(4-fluorobenzyl)-6-oxo-6,9-dihydro-1H-purin-8-yl)-N-(21-chloro-3,6,9,12,15-pentaoxahenicos-1-yl)-β-alaninamide]: the “Activity value (GFP/actin of drug-treated cells relative to drug-untreated control)” value came out at 0.7.
The same measure, in the same setting: under `CC(=O)N[C@@H](CSc1nc2c(=O)[nH]c(N)nc2n1C1CCCCC1)C(=O)NCCOCCOCCOCCOCCOCCCCCCCl` [Example 28, N^2-acetyl-S-(2-amino-9-cyclohexyl-6-oxo-6,9-dihydro-1H-purin-8-yl)-N-(21-chloro-3,6,9,12,15-pentaoxahenicos-1-yl)-L-cysteinamide] stands 0.4.
On the same count and under the same terms, then `Nc1nc2c(nc(CCCOCCOCCOCCOCCOCCOCCCCCCCl)n2Cc2ccc(F)cc2)c(=O)[nH]1` [Example 31, 2-Amino-8-(25-chloro-4,7,10,13,16,19-hexaoxapentacos-1-yl)-9-(4-fluorobenzyl)-1,9-dihydro-6H-purin-6-one], with 0.4; and `CC(=O)N[C@@H](CSc1nc2c(=O)[nH]c(N)nc2n1Cc1cccc(F)c1)C(=O)NCCOCCOCCOCCOCCOCCCCCCCl` [Example 23], with 0.7.
On the same count and under the same terms, then `CC(=O)N[C@@H](CSc1cn(Cc2ccc(F)cc2)c(=O)nc1N)C(=O)NCCOCCOCCOCCOCCOCCCCCCCl` [Example 21, N^2-Acetyl-S-(4-amino-1-(4-fluorobenzyl)-2-oxo-1,2-dihydropyrimidin-5-yl)-N-(21-chloro-3,6,9,12,15-pentaoxahenicos-1-yl)-L-cysteinamide Trifluoroacetate], with 0.3.

The same assay, now with this note: 10 uM, 24 hours, 1 or less = degradation promoted.
As to `CC(=O)N[C@@H](CSc1nc2c(=O)[nH]c(N)nc2n1Cc1ccccc1F)C(=O)NCCOCCOCCOCCOCCOCCCCCCCl` [Example 22, N^2-acetyl-S-(2-amino-9-(2-fluorobonzvl)-6-oxo-6,9-dihydro-1H-purin-8-yl)-N-(21-chloro-3,6,9,12,15-pentaoxahenicos-1-yl)-L-cysteinamide], the “Activity value (GFP/actin of drug-treated cells relative to drug-untreated control)” value is given as 0.7.
Still for that read-out and setting: then `CC(=O)N[C@@H](CSc1nc2c(=O)[nH]c(N)nc2n1C1CCCC1)C(=O)NCCOCCOCCOCCOCCOCCCCCCCl` [Example 12, N^2-Acetyl-S-(2-amino-9-cyclopentyl-6-oxo-6,9-dihydro-1H-purin-8-yl)-N-(21-chloro-3,6,9,12,15-pentaoxahenicos-1-yl)-L-cysteinamide], with 0.45.
